The conditions of data set [1]: prevented HTRF measurement.
The next data set addresses reader domain of YTHDF1 (Homo sapiens, UniProt Q9BYJ9). To be noted: from residual signal at 1 mM, Table S1.
Another data set concerns the target reader domain of YTHDF3 (Homo sapiens, UniProt Q7Z739). The following applies: from residual signal at 1 mM, Table S1.
The target in data set [2] is m^6A reader domain of YTHDF2 (Homo sapiens, UniProt Q9Y5A9). The following applies: for Potency/affinity for YTHDF2 (in words): HTRF, comparison within Table 1.
m^6A reader domain of YTHDF2, sequence (Q9Y5A9 383-579): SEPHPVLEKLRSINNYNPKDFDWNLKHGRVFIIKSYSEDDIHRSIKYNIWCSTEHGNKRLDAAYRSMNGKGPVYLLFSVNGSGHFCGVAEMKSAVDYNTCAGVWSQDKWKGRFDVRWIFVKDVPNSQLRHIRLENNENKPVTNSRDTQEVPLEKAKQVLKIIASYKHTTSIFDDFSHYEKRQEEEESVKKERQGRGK

reader domain of YTHDF1, sequence (Q9BYJ9 361-559): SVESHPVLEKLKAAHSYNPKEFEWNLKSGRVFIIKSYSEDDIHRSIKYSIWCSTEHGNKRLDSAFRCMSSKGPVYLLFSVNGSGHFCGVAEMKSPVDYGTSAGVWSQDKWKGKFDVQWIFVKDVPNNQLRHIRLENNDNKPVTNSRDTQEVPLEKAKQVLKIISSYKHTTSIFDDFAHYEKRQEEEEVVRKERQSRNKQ
reader domain of YTHDF3, sequence (Q7Z739 391-585): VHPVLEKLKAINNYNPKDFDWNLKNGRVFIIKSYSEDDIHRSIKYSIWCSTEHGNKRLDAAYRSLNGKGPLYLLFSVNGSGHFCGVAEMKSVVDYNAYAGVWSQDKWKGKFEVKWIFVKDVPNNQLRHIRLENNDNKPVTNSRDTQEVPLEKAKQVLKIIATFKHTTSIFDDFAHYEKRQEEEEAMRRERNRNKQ

As for `CNc1nc(NC)c2ncn(C)c2n1` [Compound 3], the “Solubility (in words)” value in data set [1] is listed as “poor solubility”.

In the case of `CNc1ncnc2c(C)[nH]nc12` [Compound 5], the “Affinity for YTHDF1 (in words)” value at reader domain of YTHDF1 is recorded as “weak affinity”. Moreover, on reader domain of YTHDF3, the “Affinity for YTHDF3 (in words)” value is on record as “weak affinity”.

Take `Cc1[nH]nc2c(NC3CC3)ncnc12` [Compound 6]: in data set [2], the “Potency/affinity for YTHDF2 (in words)” value is “lower than the one observed for its parent compound 5”.

For the compound `CNc1ncnc2c(-c3ccccc3)[nH]nc12` [Compound 7], in data set [2] (from residual signal at 1 mM, Table S1), the “Selectivity for YTHDF2 against YTHDF1 and YTHDF3 (in words)” value is “modest selectivity”.

As for `CNc1ncnc2c(Br)[nH]nc12` [Compound 8], in data set [2], the “Potency/affinity for YTHDF2 (in words)” value is “nor any improvement in potency with respect to the methyl of 5”.

For `COc1cc(=O)[nH]c(=O)[nH]1` [Compound 10, 6-methoxyuracil], the “Potency/affinity for YTHDF2 (in words)” value in data set [2] was “does not provide higher affinity”.

Take `O=c1cc(C2CC2)[nH]c(=O)[nH]1` [Compound 11, 6-cyclopropyluracil]: the “Potency/affinity for YTHDF2 (in words)” value in data set [2] is reported as “substantially higher”. Besides, in data set [2] (calculated from YTHDF2 IC50), the Ligand efficiency is recorded as 0.47 kcal mol^–1 per non-hydrogen atom.

Regarding `CNc1ncnc2c1ncn2[C@@H]1O[C@H](CO)[C@@H](O)[C@H]1O` [m^6A, N6-methyladenosine, reference compound], in data set [2], the “Potency/affinity for YTHDF2 (in words)” value is given as “not able to reduce the emitted signal even at high concentrations”.
